Columns and labels:
Npc1^−/− mice = assay: Survival / life span of Npc1−/− mice; format: in vivo, mouse
Procedure: BALBc/NPC ^h and Sandhoff mice were bred as heterozygotes to generate affected mice (Npc1^−/−, Hexb^−/−) and controls (Npc^+/+, Hexb^+/+). The mice were housed under non-sterile conditions, with food and water available ad libitum. All experiments were conducted using protocols approved by the UK Home Office Animal Scientific Procedures Act, 1986.
ADLL and enantiomers (ADLL: Molekula #73891210, ALL: Sigma Aldrich #441511, ADL: Sigma #A0876) were administered as dry admix in powdered mouse diet (PicoLab Rodent Diet 20/5053, LabDiet) at a dose of 0.1 g/kg/day for in vivo studies. Treatment groups for in vivo study consisted of at least 5 mice per group. In vitro studies were conducted with each compound dissolved in PBS to generate a 50 mM stock solution and diluted to a 1 mM working concentration in media (DMEM High Glucose-Gibco #10566016).
Miglustat (Monsanto/Oxford GlycoSciences) was administered as a dry solid mixed with powdered chow (600 mg/kg/day) (see above) alone or in combination with ADLL.
The weight and activity of each mouse was recorded weekly until reaching the humane endpoint (defined as a loss of 1 g body weight within 24 h). Gait analysis was performed using CatWalk 10.5 system (Noldus) according to the manufacturer's instructions and five runs were recorded per animal at each time point. The camera was set to 40 cm below the walkway, the walkway was approximately 4 cm wide, and detection settings set to camera gain 14.05 and green intensity 0.12. Motor function was measured using an accelerating NG Rota Rod for mice (Ugo Basile) starting from 1 rpm to 10 rpm, accelerating every 30 seconds by one rpm. Bar crossing experiments on Sandhoff animals were conducted to measure motor strength and coordination. The apparatus used was modified from published studies. […] Latency to cross or fall from the bar was scored, with 120 sec, maximum, to termination of each trial. […]

[1] = test system: GM2 gangliosidosis patients; assay: Observational case series in GM2 gangliosidosis patients; format: in vivo, human; settings: three GM2 gangliosidosis patients
Procedure: Observational studies in GM2 gangliosidosis Patients: In a prospective observational case series in three patients with genetically proven GM2 gangliosidoses (2 patients with Tay-Sachs disease, 1 patient with Sandhoff disease) the symptomatic effects of ADLL was evaluated. Patients were treated with 0.1 g per kg body weight per day, for at least four weeks and the clinical effects determined using the Scale for the Assessment and Severity of Ataxia (SARA), the 8-meter walk test (8MWT) and the Montreal Cognitive Assessment (MoCA). Consent from all participants was obtained.
A patient with a genetically confirmed diagnosis of Tay-Sachs disease presented with dysarthrophonia, tremor, ataxia of stance and gait, paraparesis, and muscular atrophy. Prior to treatment, the patient required the support of both a caregiver on one side and a wall on the other in order to walk down a corridor. The patient was receiving sodium-valproate (500 mg/d), lithium (450 mg/d), and risperidone (3 mg/d) (medications for clinically diagnosed bipolar disorder), and continued to do so during treatment with N-Acetyl-DL-Leucine. The patient was also receiving physiotherapy, ergotherapy, and logotherapy twice a week.
A patient with a genetically confirmed diagnosis of Tay-Sachs disease presented with ataxia of stance and gait, fine motor impairment, paraparesis of lower extremities and muscular atrophy. They were receiving physiotherapy, ergotherapy and logotherapy and continued to do so during treatment with N-Acetyl-DL-Leucine.
A patient suffering from Sandhoff disease, with muscle hypotrophy, epileptic cramps (tonic-clonic, about 10 seconds, self-limiting), disordered ocular movement and anarthria. Their daily activities were very limited, being unable to eat, wash, or dress themself. They were receiving levetiracetam (1 g/d), lamotrigine (100 mg/d), omeprazole (20 mg/d), and miglustat (300 mg/d), in addition to physiotherapy, ergotherapy and logotherapy, and continued to do so during treatment with N-Acetyl-DL-Leucine.

[2] = 0.1 g per kg body weight per day, baseline vs one month on medication

Row | SMILES | increase in life span (Npc1^−/− mice; Npc1−/− mice treated from weaning, 0.1 g/kg/day, relative to untreated Npc1−/−) | median survival (Npc1^−/− mice; Npc1−/− mice, ADLL 0.1 g/kg/day, miglustat 600 mg/kg/day in chow, untreated Npc1−/− 87 days) [days] | improvement reported by patients and caregivers [1] | mean improvement of the 8-M-Walking-Test (8MWT) [1, 2] [%] | mean improvement of the Montreal Cognitive Assessment (MoCA) [1, 2] [%] | mean improvement of the Scale for Assessment and Rating of Ataxia (SARA) [1, 2] [%]
1 | CC(=O)N[C@H](CC(C)C)C(=O)O [ADL, N-acetyl-D-leucine] | not changed | – | – | – | – | –
2 | CC(=O)NC(CC(C)C)C(=O)O (racemic) [ADLL, N-acetyl-DL-leucine] | – | 91 | subjective improvement | 17.8 | 42 | 20.3

From US12697316B2, “Combination therapy with acetyl-leucine and miglustat” (INTRABIO LTD., priority 2019, dated 2026)
